Ten compounds from US4440772A, “Acid addition salts of dextrorotatory ergot alkaloids, a process for the preparation thereof as well as their use as medicines” (priority 1978, dated 1984) can be followed below.

Series [1] has as its system smooth muscles of blood vessels. Put plainly: effect on blood pressure drop in rats with cut spinal cord. It counts as in vivo, rats (variety Wistar). The settings on record: for duration of long-duration hypertension: acid addition salts, 1.5 mg/kg of body weight; for vasoconstrictory effect: contraction of smooth muscles of blood vessels. The source says:
Rats (variety Wistar) in urethane narcosis were cut their spinal cord in the region of the second cervical vertebra and connected to an artificial breathing apparatus (B. Melsungen). By this intervention the central regulation of blood pressure was eliminated. In so treated animals blood pressure dropped for about 50 mm Hg. The experiment was supposed to show whether the examined substances directly affected the smooth muscles of blood vessels.

A short description of series [2]: acute toxicity (LD50), intraperitoneal administration. The settings on record: mouse, in vivo, ip, male mice, 24 hours after administration. The method, then: The volume of injected solution was 0.01 ml/g of body weight. In the following Table I acute toxicity of dextrorotatory ergot alkaloids in comparison with levorotatory ergot alkaloids 24 hours after the intraperitoneal administration is given.

The subject of series [3] is isolated heart of a guinea pig. Briefly: effect on isolated heart of a guinea pig, modified Langendorff's method. An excerpt: The effect of dextrorotatory ergot alkaloids according to the invention on heart in vitro was examined on isolated heart of a guinea pig by the modified Langendorff's method (Zalar et al., Poll. Chim. Farmac. 114, 1975, 146). Alkaloids were infused by an apparatus for slow infusion (B. Melsungen).

Series [4] deals with alpha-adrenergic receivers of the dilatating pupil muscle. Briefly: effect on the function of the pupil (mydriatic effect, Polewka's method). It counts as in vivo. The settings on record: 5 mg/kg intravenously, mouse. The method, then:
The phenomenon of mydriasis induced by ergot alkaloids results from the stimulation of alpha-adrenergic receivers of the dilatating pupil muscle (Z. Votava et al., Arch. int. Pharmacodin. 45, 1958, 114).
The mydriatic effect of dextrorotatory ergot alkaloids administered intravenously was determined with a monocular measuring magnifying glass by Polewka's method (A. R. Turner, Screening Methods in Pharmacology, 1965, p. 174 ff.).
The size of the pupil was measured at first before the administration of the substance and then 15, 30 and 60 minutes after intravenous administration of alkaloids into the mouse tail (dose 5 mg/kg of body weight).

Series [5] relates to arrhythmias induced by adrenalin. Briefly: effect on arrhythmia induced by adrenalin. It counts as in vivo. The settings on record: 2.0 mg/kg intraperitoneally, guinea pigs, adrenalin 0.02 mg/kg intravenously. The method, then: For experiments, guinea pigs of both sexes, weighing from 400 to 550 g, were used. The narcotized animals (urethane 1.6 g/kg of body weight, intraperitoneally) were at first intravenously administered adrenalin (0.02 mg/kg) and then dextrorotatory ergot alkaloids. 1 hour and 1.5 hours after the administration of dextrorotatory ergot alkaloids, adrenalin was again administered intravenously (0.02 mg/kg) and the presence as well as duration of arrhythmias was ascertained.

Series [6] concerns spontaneously hypertensive rats. Briefly: effect on arterial pressure of spontaneously hypertensive rats. Format: in vivo, rats (variety Okamoto Aoki F32). The method, then:
For the experiment groups of 10 spontaneously hypertensive rats (variety Okamoto Aoki F32) of both sexes, weighing from 200 to 250 g, were used. The acid addition salts of said dextrorotatory ergot alkaloids were administered intraperitoneally in doses of 50 mcg/kg of body weight and systolic blood pressure was measured on the rats' tails by means of plethysmographic method (K. Okamoto and K. Aoki, Jap. Circulat. J. 27, 1963, 282).

[7] abbreviates: control, spontaneously hypertensive rats.
Where [8] appears, read: day 2, 50 mcg/kg intraperitoneally.
Where [9] appears, read: day 4, 50 mcg/kg intraperitoneally.
Where [10] appears, read: day 6, 50 mcg/kg intraperitoneally.
[11] abbreviates: day 8, 50 mcg/kg intraperitoneally.
Where [12] appears, read: day 10, 50 mcg/kg intraperitoneally.

The structures appear in SMILES notation. Counter-ions that a name gives are not always drawn. Like-named read-outs stand apart in the source and are kept apart here.

`CC(C)[C@H]1C(=O)N2CCC[C@H]2[C@]2(O)O[C@](NC(=O)[C@H]3C=C4c5cccc6[nH]cc(c56)C[C@H]4N(C)C3)(C(C)C)C(=O)N12` [ergocorninine]: in series [1], the “duration of long-duration hypertension” value was “more than 60 minutes” and the vasoconstrictory effect result is reported as “vasoconstrictory effect”.
By LD50 is commonly meant the dose expected to kill half of the subjects tested. A high value points to a less toxic substance. Regarding `CC(C)[C@H]1C(=O)N2CCC[C@H]2[C@]2(O)O[C@](NC(=O)[C@H]3C=C4c5cccc6[nH]cc(c56)C[C@H]4N(C)C3)(C(C)C)C(=O)N12` [ergocorninine methanesulfonate, Ergocorninine methanesulfonate], the LD50 at 24 h in series [2] was more than 520 mg/kg. The inhibition at 4.9 µg/g in series [3] (Cavia porcellus, dose 4.90 mcg/g of heart, read-out: (-)chronotropic (maximum)) is 11%. Besides, the “The increase of pupil widening in comparison with the control” value (from here on “The increase of pupil widening”) came out at 52.7% in series [4] (after 15 min.), 36.1% in series [4] (after 30 min.) and 19.4% in series [4] (after 60 min.). Also, in series [5], the “Shortening of arrhythmia duration” value was 46 % of control. For the same compound, the Systolic blood pressure in series [6] (setting [7]) was found to be 190 mm Hg; in series [6] (setting [8]) it was 182 mm Hg; in series [6] (setting [9]) it was 176 mm Hg; in series [6] (setting [10]) it was 166 mm Hg; in series [6] (setting [11]), 160 mm Hg; in series [6] (setting [12]) it was 161 mm Hg.
In series [2], `CN1C[C@H](C(=O)N[C@]2(C)O[C@@]3(O)[C@@H]4CCCN4C(=O)[C@H](Cc4ccccc4)N3C2=O)C=C2c3cccc4[nH]cc(c34)C[C@H]21` [ergotamine tartrate, reference compound] gave an LD50 at 24 h of 412 mg/kg. Also, the activation at 0.65 µg/g in series [3] (Cavia porcellus, read-out: (+)inotropic (maximum)) turned out to be 75%. Also, the inhibition at 0.65 µg/g in series [3] (Cavia porcellus, read-out: (-)chronotropic (maximum)) stood at 30%. For the same compound, the “The increase of pupil widening” value in series [4] (after 15 min.) is given as 73.3%; in series [4] (after 30 min.), 22.8%; in series [4] (after 60 min.), 4.6%. In addition, in series [5], the “Shortening of arrhythmia duration” value was 63 % of control. In addition, the Systolic blood pressure in series [6] (setting [7]) is reported as 179 mm Hg; in series [6] (setting [8]), 174 mm Hg; in series [6] (setting [9]), 170 mm Hg; in series [6] (setting [10]), 172 mm Hg; in series [6] (setting [11]) it was 173 mm Hg; in series [6] (setting [12]), 172 mm Hg.
Turning to `CC(C)C[C@H]1C(=O)N2CCC[C@H]2[C@]2(O)O[C@](NC(=O)[C@@H]3C=C4c5cccc6[nH]cc(c56)C[C@H]4N(C)C3)(C(C)C)C(=O)N12` [ergocryptine methanesulfonate, reference compound], the LD50 at 24 h in series [2] is 188 mg/kg.
In series [2], `CC(C)C[C@H]1C(=O)N2CCC[C@H]2[C@]2(O)O[C@](NC(=O)[C@H]3C=C4c5cccc6[nH]cc(c56)C[C@H]4N(C)C3)(C(C)C)C(=O)N12` [ergocryptinine methanesulfonate, Ergocryptinine methanesulfonate] had a 50% lethal dose (LD50) at 24 h of more than 520 mg/kg. For the same compound, the activation at 0.04 µg/g in series [3] (Cavia porcellus, dose 0.04 mcg/g of heart, read-out: (+)inotropic (maximum)) amounted to 111%. In addition, the inhibition at 0.04 µg/g in series [3] (Cavia porcellus, dose 0.04 mcg/g of heart, read-out: (-)chronotropic (maximum)) came to 21%. Further, the “The increase of pupil widening” value in series [4] (after 15 min.) was 117.4%; in series [4] (after 30 min.), 91.6%; in series [4] (after 60 min.), 32.2%. Besides, the “Shortening of arrhythmia duration” value in series [5] is listed as 63 % of control. For the same compound, the Systolic blood pressure in series [6] (setting [7]) is 189 mm Hg; in series [6] (setting [8]), 181 mm Hg; in series [6] (setting [9]) it was 176 mm Hg; in series [6] (setting [10]), 168 mm Hg; in series [6] (setting [11]) it was 161 mm Hg; in series [6] (setting [12]), 160 mm Hg.
Regarding `CN1C[C@@H](C(=O)N[C@]2(C)O[C@@]3(O)[C@@H]4CCCN4C(=O)[C@H](Cc4ccccc4)N3C2=O)C=C2c3cccc4[nH]cc(c34)C[C@H]21` [ergotaminine methanesulfonate, Ergotaminine methanesulfonate], the LD50 at 24 h in series [2] is more than 300 mg/kg. For the same compound, the activation at 5.59 µg/g in series [3] (Cavia porcellus, dose 5.59 mcg/g of heart, read-out: (+)inotropic (maximum)) came to 32%. The inhibition at 5.59 µg/g in series [3] (Cavia porcellus, dose 5.59 mcg/g of heart, read-out: (-)chronotropic (maximum)) is 20%. Moreover, the entries for the “The increase of pupil widening” value in series [4] (after 15 min.), in series [4] (after 30 min.) and in series [4] (after 60 min.) were 66.3%, 69.8% and 30.3%, respectively. For the same compound, the “Shortening of arrhythmia duration” value in series [5] is 28 % of control. Also, the Systolic blood pressure in series [6] (setting [7]) amounted to 189 mm Hg; in series [6] (setting [8]) it was 162 mm Hg; in series [6] (setting [9]) it was 143 mm Hg; in series [6] (setting [10]) it was 131 mm Hg; in series [6] (setting [11]) it was 144 mm Hg; in series [6] (setting [12]), 150 mm Hg.
The compound `CC(C)[C@@]1(NC(=O)[C@@H]2C=C3c4cccc5[nH]cc(c45)C[C@H]3N(C)C2)O[C@@]2(O)[C@@H]3CCCN3C(=O)[C@H](Cc3ccccc3)N2C1=O` [ergocristine methanesulfonate, reference compound] yielded a median lethal dose (LD50) at 24 h in series [2] of 234 mg/kg.
With `CC(C)C[C@H]1C(=O)N2CCC[C@H]2[C@]2(O)O[C@](NC(=O)[C@H]3C=C4c5cccc6[nH]cc(c56)C[C@H]4N(C)C3)(C(C)C)C(=O)N12` [ergocryptinine], in series [3] (isolated heart of guinea pig), the “effect on isolated heart (in words)” value is “qualitatively similar to that of ergotamine, ergosine and dihydroergotamine”; the “effect on the strength of heart contraction (in words)” value is “quantitatively greater effect on the strength of heart contraction”. The “mydriatic effect (in words)” value in series [4] is on record as “strongest mydriatic effect”. In series [1], the “duration of long-duration hypertension” value is given as “more than 60 minutes” and the vasoconstrictory effect result is recorded as “vasoconstrictory effect”.
`CC(C)C[C@H]1C(=O)N2CCC[C@H]2[C@]2(O)O[C@@](C)(NC(=O)[C@H]3C=C4c5cccc6[nH]cc(c56)C[C@H]4N(C)C3)C(=O)N12` [ergosinine methanesulfonate, Ergosinine methanesulfonate] had an LD50 at 24 h in series [2] of 245 mg/kg. In series [3] (Cavia porcellus, dose 0.65 mcg/g of heart, read-out: (+)inotropic (maximum)), the activation at 0.65 µg/g came to 103%. Moreover, in series [3] (Cavia porcellus, dose 0.65 mcg/g of heart, read-out: (-)chronotropic (maximum)), the inhibition at 0.65 µg/g is 23%. Also, the “The increase of pupil widening” value stood at 135.0% in series [4] (after 15 min.), 122.5% in series [4] (after 30 min.) and 32.5% in series [4] (after 60 min.). The “Shortening of arrhythmia duration” value in series [5] was 79 % of control. Moreover, the Systolic blood pressure is recorded as 180 mm Hg in series [6] (setting [7]); 169 mm Hg in series [6] (setting [8]); 152 mm Hg in series [6] (setting [9]); 140 mm Hg in series [6] (setting [10]); 141 mm Hg in series [6] (setting [11]); 138 mm Hg in series [6] (setting [12]).
In the case of `CC(C)C[C@H]1C(=O)N2CCC[C@H]2[C@]2(O)O[C@@](C)(NC(=O)[C@@H]3C=C4c5cccc6[nH]cc(c56)C[C@H]4N(C)C3)C(=O)N12` [ergosine methanesulfonate, reference compound], the 50% lethal dose (LD50) at 24 h in series [2] was found to be 206 mg/kg. Further, in series [3] (Cavia porcellus, dose 0.57 mcg/g of heart, read-out: (+)inotropic (maximum)), the activation at 0.57 µg/g is 49%. Besides, in series [3] (Cavia porcellus, dose 0.57 mcg/g of heart, read-out: (-)chronotropic (maximum)), the inhibition at 0.57 µg/g amounted to 17%. The “The increase of pupil widening” value in series [4] (after 15 min.) is recorded as 115.6%; in series [4] (after 30 min.), 110.5%; in series [4] (after 60 min.), 39.7%. In addition, in series [5], the “Shortening of arrhythmia duration” value is given as 84 % of control. Further, the Systolic blood pressure was determined as 188 mm Hg in series [6] (setting [7]); 183 mm Hg in series [6] (setting [8]); 178 mm Hg in series [6] (setting [9]); 176 mm Hg in series [6] (setting [10]); 175 mm Hg in series [6] (setting [11]); 177 mm Hg in series [6] (setting [12]).
